From patent US20210220331A1, “INHIBITORS OF IRES-MEDIATED PROTEIN SYNTHESIS” (The Regents of the University of California, priority 2016, published 2021)

What was measured:
Type in all cases: cell-based
LN229 cells [1] = assay: Apoptosis via Annexin V staining in LN229; details: LN229 cotreated with PP242 (50 nM) and analog (100 nM), 24 h
LN229 cells [2] = assay: Combination analysis with PP242 (XTT, combination index) in LN229; details: combination of PP242 and analog, CI=1.0 dose additive, CI<0.5 synergy, CI<0.3 strong synergy
Excerpt: Fold decrease in either PP242-induced cyclin D1 or c-MYC IRES activity in LN229 relative to values obtained with the parent compound C11 are shown for each analog. […] CI=1.0 (dose additive), CI<0.5 (synergy), CI<0.3 (strong synergy).
The structure-activity relationships (SAR) for C11 and related compounds were investigated by synthesizing and testing the analogs listed in Table 1. […] The degree of apoptotic cell death following co-treatment with analog and PP242 was also monitored.

human c-myc IRES = assay: Dicistronic IRES mRNA reporter assay (firefly luciferase), c-myc IRES; details: LN229; relative to values obtained with parent compound C11
Procedure: (§1) Western blot and quantitative RT-PCR analyses were performed as previously described (19). For Western blotting, cells or tissues were lysed in RIPA (lysis) buffer containing protease inhibitor cocktail and phosSTOP phosphatase inhibitor cocktail (Roche) and extracts resolved by SDSPAGE. Proteins were transferred to PVDF membranes and incubated with the indicated antibodies. For IRES reporter assays, the indicated mRNA reporters were cotransfected into cells with pSVβ-galactosidase to normalize for transfection efficiency as described previously (16). Cells were harvested 18 h following transfection and Renilla, firefly and β-galactosidase activities determined using the Dual-Glo Luciferase and β-galactosidase assay systems (Promega).
(§2) (B) Schematic diagrams of the dicistronic constructs used in this study. Constructs used are pRF, pRCD1F, which contains the human cyclin D1 IRES, pRmycF, containing the human c-myc IRES, pRp27F, containing the human p27Kip1 IRES and pRECMVF, containing the IRES from encephalomyocarditis virus. (C) Relative Renilla and firefly luciferase activities obtained from LN229 GBM cells transfected with the indicated constructs in the absence or presence of the inhibitor C11. The mean and +SD are shown for three independent experiments. […] (D) RNA-pull down assays utilizing biotinylated cyclin D1 or c-MYC IRES RNAs. Cytoplasmic extracts of LN229 cells treated with C11 (50 nM) as indicated were incubated with biotinylated cyclin D1 or c-MYC IRES RNAs and precipitated with streptavidin-Sepharose beads. Input and bound fractions were analyzed by immunoblotting using hnRNP A1 antibodies. […] RT-PCR measurements were performed in quadruplicate and the mean and +S.D. are shown. […] (F) Top panel, LN229 cells were treated with C11 as indicated and RT-PCR splicing analysis for Max exon 5 performed as described in the Experimental Methods section. Middle panel, LN229 cells treated with C11 (50 nM) as indicated, were lysed and immunoprecipitated using either eIF-4E or control IgG antibodies. Bound CCND1 or c-MYC RNAs were detected via RT-PCR. The mean and +S.D. are shown for three independent experiments. Bottom panel, cyclin D1 and c-MYC protein levels from the indicated GBM cell lines in the absence or presence of C11 at 24 h following treatment. C11 specifically blocks c-Myc IRES-mediated translation initiation by disrupting the ITAF hnRNP A1-IRES interaction.
(§3) Several dicistronic IRES mRNA reporter constructs were utilized, shown in FIG. 1B, in which the indicated IRES sequences were inserted within the intercistronic region. LN229 cells transiently transfected with these constructs were assayed for Renilla and firefly luciferase activities, which are readouts of cap-dependent and IRES-mediated translation initiation, respectively (16). […]

human cyclin D1 IRES = assay: Dicistronic IRES mRNA reporter assay (firefly luciferase), cyclin D1 IRES; details: LN229; relative to values obtained with parent compound C11
Procedure: as §1, §2, §3

| SMILES | % Apoptosis (100 nM) (LN229 cells [1]) [%] | CI ED50, 1:100 (combination index) (LN229 cells [2]) | c-myc (decrease): fold decrease in PP242-induced c-MYC IRES activity (human c-myc IRES) [fold] | Cyclin D1 (decrease): fold decrease in PP242-induced cyclin D1 IRES activity (human cyclin D1 IRES) [fold] |
| --- | --- | --- | --- | --- |
| CN(C)c1ccc(N2C(=O)c3ccccc3C2=O)cc1 [IRES-J014, 2-(4-(Dimethylamino)phenyl)isoindoline-1,3-dione] | 20.6 | 0.84 | 1.33 ± 0.11 | 1.86 ± 0.27 |
| O=C1c2ccccc2C(=O)N1Nc1ccccc1 [IRES-J011, 2-(Phenylamino)isoindoline-1,3-dione] | 22.8 | 0.86 | 1.64 ± 0.18 | 1.91 ± 0.1 |
| COCCCN1C(=O)c2ccccc2C1=O [IRES-J015, 2-(3-Methoxypropyl)isoindoline-1,3-dione] | 18.3 | 0.88 | 1.25 ± 0.24 | 1.61 ± 0.15 |
| O=C1c2ccccc2C(=O)N1N(c1ccccc1)c1ccccc1 [IRES-J012, 2-(Diphenylamino)isoindoline-1,3-dione] | 20.1 | 0.89 | 1.53 ± 0.17 | 1.02 ± 0.31 |
| COc1ccc(CN2C(=O)C=CC2=O)c(OC)c1 [IRES-J000, 1-((2,4-Dimethoxyphenyl)methyl)-1H-pyrrole-2,5-dione] | 25.6 | 0.51 | 1.01 ± 0.03 | 1.05 ± 0.21 |
| COc1ccc(CN2C(=O)C(C)=C(C)C2=O)c(OC)c1 [IRES-J004, 1-((2,4-Dimethoxyphenyl)methyl)-3,4-dimethyl-1H-pyrrole-2,5-dione] | 24.8 | 0.82 | 1.39 ± 0.11 | 1.42 ± 0.07 |
| O=C1C=CC(=O)N1Cc1ccc(F)cc1 [IRES-J003, 1-((4-Fluorophenyl)methyl)-1H-pyrrole-2,5-dione] | 27.1 | 0.88 | 1.19 ± 0.04 | 0.97 ± 0.06 |
| COc1ccc(CN2C(=O)C=CC2=O)cc1 [IRES-J002, 1-((4-Methoxyphenyl)methyl)-1H-pyrrole-2,5-dione] | 28.6 | 0.86 | 1.37 ± 0.21 | 1.60 ± 0.18 |
| COc1ccc(N2C(=O)C=CC2=O)cc1 [IRES-J008, 1-(4-Methoxyphenyl)-1H-pyrrole-2,5-dione] | 75.7 | 0.39 | 5.92 ± 0.10 | 5.58 ± 0.16 |
| COc1ccc(CN2C(=O)C(c3ccccc3)=C(c3ccccc3)C2=O)c(OC)c1 [IRES-J005, 1-((2,4-Dimethoxyphenyl)methyl)-3,4-diphenyl-1H-pyrrole-2,5-dione] | 23.5 | 0.91 | 1.28 ± 0.16 | 1.32 ± 0.14 |
| O=C1c2ccccc2C(=O)N1Cc1ccccc1 [IRES-J010, 2-(Phenylmethyl)isoindoline-1,3-dione] | 19.7 | 0.83 | 1.94 ± 0.25 | 1.77 ± 0.16 |
| COc1ccc(CN2C(=O)CCC2=O)c(OC)c1 [IRES-J006, 1-((2,4-Dimethoxyphenyl)methyl)pyrrolidine-2,5-dione] | 20.1 | 0.94 | 1.25 ± 0.19 | 1.26 ± 0.10 |
| COc1ccc(N2C(=O)c3ccccc3C2=O)cc1 [IRES-J013, 2-(4-Methoxyphenyl)isoindoline-1,3-dione] | 19.2 | 0.85 | 1.72 ± 0.06 | 1.17 ± 0.21 |
| O=C1C=CC(=O)N1Cc1ccccc1 [IRES-J001, 1-Phenylmethyl-1H-pyrrole-2,5-dione] | 30.2 | 0.89 | 1.12 ± 0.13 | 1.49 ± 0.05 |
